In patent publication US6627630B1, “Condensed pyridazine derivatives, their production and use” (Takeda Chemical Industries, Ltd., priority 1998, dated 2003) one finds melting point data, which are given here for 33 compounds.

Where a name gives a salt, the structure may show the parent alone.

In general, melting point refers to the temperature of the solid-liquid transition.

`c1ccc(C(OC2CCN(CCCCCNc3ccc4ncnn4n3)CC2)c2ccccc2)cc1` [Example 114A, 6-[5-[4-(Diphenylmethoxy)piperidino]pentylamino][1,2,4]triazolo[1,5-b]pyridazine] had a melting point of 96 to 98 °C. The value for `c1ccc(C(c2ccccc2)N2CCN(CCCCCCNc3ccc4ncnn4n3)CC2)cc1` [Example 37A, 6-[6-[4-(Diphenylmethyl)-1-piperazinyl]hexylamino][1,2,4]triazolo[1,5-b]pyridazine] was 130 to 132 °C; that for `CCOC(=O)CNC(=O)c1cn2nc(NCCCN3CCC(OC(c4ccccc4)c4ccccc4)CC3)ccc2n1` [Example 70A, N-[6-[3-[4-(Diphenylmethoxy)piperidino]propylamino]imidazo[1,2-b]pyridazine-2-carbonyl]glycine Ethyl Ester] was 172 to 174 °C; that for `O=C(O)CNC(=O)c1cn2nc(NCCCN3CCC(OC(c4ccccc4)c4ccccc4)CC3)ccc2n1` [Example 72A, N-[6-[3-[4-(Diphenylmethoxy)piperidino]propylamino]imidazo[1,2-b]pyridazine-2-carbonyl]glycine] was 171 °C. For `CC(C)(C(=O)O)c1cn2nc(NCCN3CCC(OC(c4ccccc4)c4ccccc4)CC3)ccc2n1` [Example 79A, 2-[6-[2-[4-(Diphenylmethoxy)piperidino]ethylamino]imidazo[1,2-b]pyridazin-2-yl]-2-methylpropionic Acid] the value was 194 to 198 °C.

With `COc1cn2nc(OCCCN3CCN(C(c4ccccc4)c4ccccc4)CC3)ccc2n1` [Example 42A, 6-[3-[4-(Diphenylmethyl)-1-piperazinyl]propoxy]-2-methoxyimidazo[1,2-b]pyridazine], the melting point is 144 to 146 °C. On to `CC(C)(C(=O)O)c1cn2nc(NCCCN3CCC(OC(c4ccccc4)c4ccccc4)CC3)ccc2n1` [Example 43A, 2-[6-[3-[4-(Diphenylmethoxy)piperidino]propylamino]imidazo[1,2-b]pyridazin-2-yl]-2-methylpropionic Acid], for which the melting point is 205 to 206 °C. For `Cc1nc2ccc(NCCCN3CCC(OC(c4ccccc4)c4ccccc4)CC3)nn2c1C(=O)O` [Example 107A, [6-[3-[4-(Diphenylmethoxy)piperidino]propylamino]-2-methylimidazo[1,2-b]pyridazin-3-yl]carboxylic Acid] the value was 101 to 103 °C; for `c1ccc(C(OC2CCN(CCCCNc3ccc4ncnn4n3)CC2)c2ccccc2)cc1` [Example 12A, 6-[4-[4-(Diphenylmethoxy)piperidino]butylamino][1,2,4]triazolo[1,5-b]pyridazine], 102 to 104 °C. For `CC(C)(C)c1cc2ncnn2nc1OCCN1CCC(OC(c2ccccc2)c2ccccc2)CC1` [Example 15A, 7-t-Butyl-6-[2-[4-(Diphenylmethoxy)piperidino]ethoxy][1,2,4]triazolo[1,5-b]pyridazine] the value was 133 to 135 °C.

The compound `c1ccc(-c2nc3ccc(NCCCN4CCC(OC(c5ccccc5)c5ccccc5)CC4)nn3n2)cc1` [Example 32A, 6-[3-[4-(Diphenylmethoxy)piperidino]propylamino]-2-phenyl[1,2,4]triazolo[1,5-b]pyridazine] registered a melting point of 170 to 172 °C. The value for `Cc1cc2ncnn2nc1OCCOCCN1CCN(C(c2ccccc2)c2ccccc2)CC1` [Example 47A, 6-[2-[2-[4-(Diphenylmethyl)-1-piperazinyl]ethoxy]ethoxy]-7-methyl[1,2,4]triazolo[1,5-b]pyridazine] was 71 to 72 °C. The value for `OC(CNc1ccc2ncnn2n1)CN1CCC(OC(c2ccccc2)c2ccccc2)CC1` (stereo not drawn) [Example 115A, 1-[4-(Diphenylmethoxy)piperidino]-3-[([1,2,4]triazolo[1,5-b]pyridazin-6-yl)amino]-2-propanol] was 82 to 87 °C; that for `c1ccc(C(c2ccccc2)N2CCN(CCCNc3ccc4ncnn4n3)CC2)cc1` [Example 5A, 6-[3-[4-(Diphenylmethyl)-1-piperazinyl]propylamino][1,2,4]triazolo[1,5-b]pyridazine] was 139 to 140 °C. For `Cc1cc2ncnn2nc1OCCOCCN1CCC(OC(c2ccccc2)c2ccccc2)CC1` [Example 53A, 6-[2-[2-[4-(Diphenylmethoxy)piperidino]ethoxy]ethoxy]-7-methyl[1,2,4]triazolo[1,5-b]pyridazine] the value was 80 to 82 °C.

In turn, `CC(C)(C(=O)O)c1cn2nc(CCCCN3CCN(C(c4ccccc4)c4ccccc4)CC3)ccc2n1` [Example 95A, 2-[6-[4-[4-(Diphenylmethyl)-1-piperazinyl]butyl]imidazo[1,2-b]pyridazin-2-yl]-2-methylpropionic Acid] gave a melting point of 108 to 110 °C. The value for `O=C(OCCOc1ccc2ncnn2n1)N1CCC(OC(c2ccccc2)c2ccccc2)CC1` [Example 25A, 6-[2-[4-(Diphenylmethoxy)piperidinocarbonyloxy]ethoxy][1,2,4]triazolo[1,5-b]pyridazine] was 75 to 76 °C. The value for `Cc1c(C(C)(C)C(=O)O)nc2ccc(NCCCN3CCC(OC(c4ccccc4)c4ccccc4)CC3)nn12` [Example 138A, 2-[6-[3-[4-(Diphenylmethoxy)piperidino]propylamino]-3-methylimidazo[1,2-b]pyridazin-2-yl]-2-methylpropionic Acid] was 219 to 220 °C; that for `CCOC(=O)C(C)(C)c1cn2nc(CCCCN3CCN(C(c4ccccc4)c4ccccc4)CC3)ccc2n1` [Example 94A, Ethyl 2-[6-[4-[4-(Diphenylmethyl)-1-piperazinyl]butyl]imidazo[1,2-b]pyridazin-2-yl]-2-methylpropionate] was 105 to 106 °C.

`CC(C)(CO)c1cn2nc(NCCCN3CCC(OC(c4ccccc4)c4ccccc4)CC3)ccc2n1` [Example 75A, 2-[6-[3-[4-(Diphenylmethoxy)piperidino]propylamino]imidazo[1,2-b]pyridazin-2-yl)-2-methylpropanol] registered a melting point of 105 to 108 °C. `O=C(O)C1(c2cn3nc(NCCCN4CCC(OC(c5ccccc5)c5ccccc5)CC4)ccc3n2)CC1` [Example 100A, 1-[6-[3-[4-(Diphenylmethoxy)piperidino]propylamino]imidazo[1,2-b]pyridazin-2-yl]cyclopropanecarboxylic Acid] returned a melting point of 115 to 117 °C.

With `O=C(CCN1CCN(C(c2ccccc2)c2ccccc2)CC1)Nc1ccc2ncnn2n1` [Example 19A, 3-[4-(Diphenylmethyl)-1-piperazinyl]-N-([1,2,4]triazolo[1,5-b]pyridazin-6-yl)propionamide], the melting point fell in the range of 176 to 177 °C. Turning to `COC(=O)c1cc2ncnn2nc1NCCCN1CCC(OC(c2ccccc2)c2ccccc2)CC1` [Example 118A, Methyl[6-[3-[4-(Diphenylmethoxy)piperidino]propylamino][1,2,4]triazolo[1,5-b]pyridazin-7-yl]carboxylate], the melting point is 120 to 122 °C. Consider `CC(C)(C(=O)O)c1cn2nc(CCCN3CCN(C(c4ccccc4)c4ccccc4)CC3)ccc2n1` [Example 104A, 2-[6-[3-[4-(Diphenylmethyl)-1-piperazinyl]propyl]imidazo[1,2-b]pyridazin-2-yl]-2-methylpropionic Acid], for which the melting point is 176 to 178 °C. For `O=C(OCCCOc1ccc2ncnn2n1)C1CC(OC(c2ccccc2)c2ccccc2)CCN1` (stereo not drawn) [Example 27A, 6-[3-[4-(Diphenylmethoxy)piperidino-carbonyloxy]propoxy][1,2,4]triazolo[1,5-b]pyridazine] the value was 119 to 120 °C; for `OC(COc1ccc2ncnn2n1)CN1CCC(OC(c2ccccc2)c2ccccc2)CC1` (stereo not drawn) [Example 16A, 1-[4-(Diphenylmethoxy)piperidino]-3-([1,2,4]triazolo[1,5-b]pyridazin-6-yloxy)-2-propanol], 133 to 135 °C; for `CC(C)(C(=O)O)c1nc2ccc(NCCCN3CCN(C(c4ccccc4)c4ccccc4)CC3)nn2c1Cl` [Example 85A, 2-[3-Chloro-6-[3-[4-(diphenylmethyl)-1-piperazinyl]propylamino]imidazo[1,2-b]pyridazin-2-yl]-2-methylpropionic Acid], 184 to 186 °C.

Regarding `CC(C)(C)c1cc2ncnn2nc1OCCOCCN1CCN(C(c2ccccc2)c2ccccc2)CC1` (as salt: hydrochloride) [Example 62A, 7-t-Butyl-6-[2-[2-[4-(Diphenylmethyl)-1-piperazinyl]ethoxy]ethoxy][1,2,4]triazolo[1,5-b]pyridazine Dihydrochloride], the melting point was 150 to 152 °C. For `Cc1cc2ncnn2nc1OCCCCCCN1CCN(C(c2ccccc2)c2ccccc2)CC1` (as salt: hydrochloride) [Example 51A, 6-[6-[4-(Diphenylmethyl)-1-piperazinyl]hexyloxy]-7-methyl[1,2,4]triazolo[1,5-b]pyridazine Dihydrochloride] the value was 170 to 172 °C; for `CC(C)(C(=O)O)c1nc2ccc(OCCCN3CCN(C(c4ccccc4)c4ccccc4)CC3)nn2c1Cl` [Example 88A, 2-[3-Chloro-6-[3-[4-(diphenylmethyl)-1-piperazinyl]propoxy]imidazo[1,2-b]pyridazin-2-yl]-2-methylpropionic Acid], 118 to 121 °C; for `CC(C)(C)c1cc2ncnn2nc1SCCOCCN1CCN(C(c2ccccc2)c2ccccc2)CC1` [Example 60A, 6-[2-[2-[4-(Diphenylmethyl)-1-piperazinyl]ethoxy]ethylthio]-7-t-butyl[1,2,4]triazolo[1,5-b]pyridazine], 106 to 108 °C. The value for `CC(C)c1cc2ncnn2nc1SCCCN1CCN(C(c2ccccc2)c2ccccc2)CC1` [Example 9A, 6-[3-[4-(Diphenylmethyl)-1-piperazinyl]propylthio]-7-isopropyl[1,2,4]triazolo[1,5-b]pyridazine] was 137 to 139 °C; that for `c1ccc(C(OC2CCN(CCCNc3ccc4ncnn4n3)CC2)c2ccccc2)cc1` [Example 6A, 6-[3-[4-(Diphenylmethoxy)piperidino]propylamino][1,2,4]triazolo[1,5-b]pyridazine] was 136 to 138 °C.
